Experimental data: patent US6930208B2, “3-Keto- or 3- oxime-ether-substituted benzoylcyclohexanediones” (Bayer CropScience GmbH, priority 2002, dated 2005)

Legend:
Assay in all cases: Plant tolerance (greenhouse, post-emergence)
Assay type in all cases: in vivo
Conditions in all cases: visual scoring four to five weeks after application
maize = system: maize
Protocol: (§1) Seeds of mono- and dicotyledonous harmful plants are placed in sandy loam in cardboard pots, covered with soil and grown in the greenhouse under good growth conditions. 2 to 3 weeks after sowing, the test plants are treated in the three-leaf stage. The compounds according to the invention, which are formulated as wettable powders or as emulsion concentrates, are sprayed at various dosages onto the surface of the green plant parts at an application rate of 600 to 800 l of water per ha (converted). After the test plants have been left to stand in the greenhouse for 3 to 4 weeks under optimal growth conditions, the effect of the compounds is scored visually. The chosen compounds according to the invention have an outstanding activity against a broad spectrum of economically important monocotyledonous and dicotyledonous harmful plants.
(§2) In further greenhouse experiments, seeds of crop plants and of monocotyledonous and dicotyledonous harmful plants are placed in sandy loam, covered with soil and placed in the greenhouse until the plants have developed two to three true leaves. Then, they are treated with the compounds of the formula (I) according to the invention as described above under item 1. […] Thus, for example, the compounds of examples Nos. 4.16 and 4.98 cause, at a dosage of 320 g/ha, no damage in wheat, rice and maize. The compounds of examples Nos. 1.4, 1.8, 4.16, 4.19 and 4.98 caused, at 80 g/ha, no damage in wheat, rice and maize.

rice = system: rice
Protocol: as §1, §2

wheat = system: wheat
Protocol: as §1, §2

CCC(=O)COc1c(S(C)(=O)=O)ccc(C(=O)C2=C(O)CCCC2=O)c1Cl [Example 1.4]
no damage: damage in maize (maize; 80 g/ha) | damage in rice (rice; 80 g/ha) | damage in wheat (wheat; 80 g/ha)

CC1(C)CC(=O)C(C(=O)c2ccc(S(C)(=O)=O)c(OCC(=O)C(C)(C)C)c2Cl)=C(O)C1 [Example 1.8]
no damage: damage in maize (maize; 80 g/ha) | damage in rice (rice; 80 g/ha) | damage in wheat (wheat; 80 g/ha)

CCON=C(C)COc1c(S(C)(=O)=O)ccc(C(=O)C2=C(O)CCCC2=O)c1Cl [Example 4.16]
no damage: damage in maize (maize; 80 g/ha) | damage in maize (maize; 320 g/ha) | damage in rice (rice; 80 g/ha) | damage in rice (rice; 320 g/ha) | damage in wheat (wheat; 80 g/ha) | damage in wheat (wheat; 320 g/ha)

C=CCON=C(C)COc1c(S(C)(=O)=O)ccc(C(=O)C2=C(O)CCCC2=O)c1Cl [Example 4.19]
no damage: damage in maize (maize; 80 g/ha) | damage in rice (rice; 80 g/ha) | damage in wheat (wheat; 80 g/ha)

CCON=C(CC)COc1c(S(C)(=O)=O)ccc(C(=O)C2=C(O)CCCC2=O)c1Cl [Example 4.98]
no damage: damage in maize (maize; 80 g/ha) | damage in maize (maize; 320 g/ha) | damage in rice (rice; 80 g/ha) | damage in rice (rice; 320 g/ha) | damage in wheat (wheat; 80 g/ha) | damage in wheat (wheat; 320 g/ha)
